Results as given in patent US10758534B2 (Vertex Pharmaceuticals Incorporated, priority 2014, dated 2020).

What follows are compounds tested against T1, F508del (Homo sapiens, UniProt P13569, DEL508-508) (assay: Protocol 2: FRET membrane potential optical assay (VIPR), identification of correction compounds). Details: F508del CFTR modulator activity; compounds of Table 1; read-out: EC30.
T1 construct: expressed in transfected cells
Type: cell-based
How it was run: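 Mouse NIH3T3 cells, stable F508del; cpd 16 hrs, 37° C., serum-free; pos ctrl 27° C. 16 hrs. Rinse in Krebs Ringers, dye load, then add 10 μM forskolin + 20 μM genistein with Cl^−-free (gluconate) medium; depolarization by FRET voltage dyes.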

T1 sequence (P13569 with tags, fused parts or gaps DEL508-508): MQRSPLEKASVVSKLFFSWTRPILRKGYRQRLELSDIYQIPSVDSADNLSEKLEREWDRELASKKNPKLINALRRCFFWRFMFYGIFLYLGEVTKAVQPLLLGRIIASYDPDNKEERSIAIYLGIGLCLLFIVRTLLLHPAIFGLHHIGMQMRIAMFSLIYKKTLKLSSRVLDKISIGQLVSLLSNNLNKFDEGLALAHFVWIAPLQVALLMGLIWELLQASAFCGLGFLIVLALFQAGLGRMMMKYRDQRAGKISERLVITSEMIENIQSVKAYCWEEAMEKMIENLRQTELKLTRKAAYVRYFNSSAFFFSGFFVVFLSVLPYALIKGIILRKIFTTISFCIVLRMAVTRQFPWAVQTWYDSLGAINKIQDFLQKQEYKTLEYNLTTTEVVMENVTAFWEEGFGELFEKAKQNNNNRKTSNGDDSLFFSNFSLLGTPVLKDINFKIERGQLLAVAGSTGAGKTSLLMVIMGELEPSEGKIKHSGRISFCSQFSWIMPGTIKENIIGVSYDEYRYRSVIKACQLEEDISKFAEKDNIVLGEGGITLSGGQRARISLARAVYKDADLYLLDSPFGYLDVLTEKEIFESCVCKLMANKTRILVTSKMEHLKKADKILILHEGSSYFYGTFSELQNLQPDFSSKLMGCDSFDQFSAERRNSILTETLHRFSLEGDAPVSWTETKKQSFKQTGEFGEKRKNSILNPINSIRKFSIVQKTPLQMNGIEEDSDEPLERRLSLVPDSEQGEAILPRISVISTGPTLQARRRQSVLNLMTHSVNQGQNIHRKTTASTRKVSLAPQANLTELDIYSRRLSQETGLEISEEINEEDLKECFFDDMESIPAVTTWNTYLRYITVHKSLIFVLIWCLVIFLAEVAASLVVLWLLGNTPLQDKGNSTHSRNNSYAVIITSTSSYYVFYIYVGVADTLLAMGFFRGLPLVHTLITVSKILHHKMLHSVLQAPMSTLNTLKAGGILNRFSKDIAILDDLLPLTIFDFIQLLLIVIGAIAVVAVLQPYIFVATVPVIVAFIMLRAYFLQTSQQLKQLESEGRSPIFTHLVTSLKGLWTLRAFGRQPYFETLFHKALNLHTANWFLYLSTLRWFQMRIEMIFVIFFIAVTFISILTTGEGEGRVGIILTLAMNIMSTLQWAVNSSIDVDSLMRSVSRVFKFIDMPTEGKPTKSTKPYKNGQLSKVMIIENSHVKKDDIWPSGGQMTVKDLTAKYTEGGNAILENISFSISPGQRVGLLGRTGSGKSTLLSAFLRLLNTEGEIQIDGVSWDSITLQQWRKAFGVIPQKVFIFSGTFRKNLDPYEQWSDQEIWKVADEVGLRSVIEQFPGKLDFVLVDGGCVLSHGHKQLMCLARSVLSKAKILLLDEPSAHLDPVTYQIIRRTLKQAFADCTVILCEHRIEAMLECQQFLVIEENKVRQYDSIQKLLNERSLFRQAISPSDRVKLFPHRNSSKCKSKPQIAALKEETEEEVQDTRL

Compound | EC30
CC(C)COc1cc(F)cc(-c2ccc(C(=O)NS(=O)(=O)c3cccc(N)n3)c(N3CC(F)C3)n2)c1 [Compound 2128, N-[(6-amino-2-pyridyl)sulfonyl]-2-(3-fluoroazetidin-1-yl)-6-(3-fluoro-5-isobutoxy-phenyl)pyridine-3-carboxamide] | 3000 to 10000 nM
CCCC(C)(C)Oc1cccc(S(=O)(=O)NC(=O)c2cccnc2N2CC(C)CC2(C)C)n1 (stereo not shown) [Compound 2130, N—[[6-(1,1-dimethylbutoxy)-2-pyridyl]sulfonyl]-2-(2,2,4-trimethylpyrrolidin-1-yl)pyridine-3-carboxamide] | < 3000 nM
CC1CN(c2ncccc2C(=O)NS(=O)(=O)c2cccc(NCC3CCCO3)n2)C(C)(C)C1 (stereo not shown) [Compound 2131, N—[[6-(tetrahydrofuran-2-ylmethylamino)-2-pyridyl]sulfonyl]-2-(2,2,4-trimethylpyrrolidin-1-yl)pyridine-3-carboxamide] | > 10000 nM
Cc1ccc(-c2ccc(C(=O)NS(=O)(=O)c3cccnc3N)c(N3C[C@@H](C)CC3(C)C)n2)cc1 [Compound 2132, N-[(2-amino-3-pyridyl)sulfonyl]-6-(p-tolyl)-2-[(4S)-2,2,4-trimethylpyrrolidin-1-yl]pyridine-3-carboxamide] | < 3000 nM
Cc1cccc(-c2ccc(C(=O)NS(=O)(=O)c3ccccc3)c(N3C[C@@H](C)CC3(C)C)n2)c1O [Compound 2133, N-(benzenesulfonyl)-6-(2-hydroxy-3-methyl-phenyl)-2-[(4S)-2,2,4-trimethylpyrrolidin-1-yl]pyridine-3-carboxamide] | < 3000 nM
CCOc1ccc(F)c(-c2ccc(C(=O)NS(=O)(=O)c3ccc[nH]c3=O)c(N3C[C@@H](C)CC3(C)C)n2)c1 [Compound 2138, 6-(5-ethoxy-2-fluoro-phenyl)-N-[(2-oxo-1H-pyridin-3-yl)sulfonyl]-2-[(4S)-2,2,4-trimethylpyrrolidin-1-yl]pyridine-3-carboxamide] | < 3000 nM
CC(C)(C)c1ccc(C(=O)NS(=O)(=O)c2cccc(N)n2)c(N2CCC(C3CCOCC3)C2(C)C)n1 (stereo not shown) [Compound 2139] | < 3000 nM
C[C@@H]1CN(c2ncccc2C(=O)NS(=O)(=O)N2CCN(CCCc3ccc(Cl)cc3)CC2)C(C)(C)C1 [Compound 2141, N-[4-[3-(4-chlorophenyl)propyl]piperazin-1-yl]sulfonyl-2-[(4S)-2,2,4-trimethylpyrrolidin-1-yl]pyridine-3-carboxamide] | < 3000 nM
C[C@@H]1CN(c2nc(-c3cccc(C(F)(F)F)c3)ccc2C(=O)NS(=O)(=O)c2ccc[nH]c2=O)C(C)(C)C1 [Compound 2144, N-[(2-oxo-1H-pyridin-3-yl)sulfonyl]-6-[3-(trifluoromethyl)phenyl]-2-[(4S)-2,2,4-trimethylpyrrolidin-1-yl]pyridine-3-carboxamide] | < 3000 nM
CC1CN(c2ncccc2C(=O)NS(=O)(=O)c2cccc(Oc3ccc(Cl)cc3)n2)C(C)(C)C1 (stereo not shown) [Compound 2145, N—[[6-(4-chlorophenoxy)-2-pyridyl]sulfonyl]-2-(2,2,4-trimethylpyrrolidin-1-yl)pyridine-3-carboxamide] | < 3000 nM
CC1CN(c2ncccc2C(=O)NS(=O)(=O)c2cccc(OCc3ccc4ccccc4c3)n2)C(C)(C)C1 (stereo not shown) [Compound 2151, N—[[6-(2-naphthylmethoxy)-2-pyridyl]sulfonyl]-2-(2,2,4-trimethylpyrrolidin-1-yl)pyridine-3-carboxamide] | < 3000 nM
COC1CCCN(c2cccc(S(=O)(=O)NC(=O)c3cccnc3N3CC(C)CC3(C)C)n2)C1 (stereo not shown) [Compound 2152, N—[[6-(3-methoxy-1-piperidyl)-2-pyridyl]sulfonyl]-2-(2,2,4-trimethylpyrrolidin-1-yl)pyridine-3-carboxamide] | 3000 to 10000 nM
CC(C)COc1ccc(-c2ccc(C(=O)NS(=O)(=O)c3ccc[nH]c3=O)c(N3C[C@@H](C)CC3(C)C)n2)cc1 [Compound 2153, 6-(4-isobutoxyphenyl)-N-[(2-oxo-1H-pyridin-3-yl)sulfonyl]-2-[(4S)-2,2,4-trimethylpyrrolidin-1-yl]pyridine-3-carboxamide] | < 3000 nM
Cc1ccc(-c2ccc(C(=O)NS(=O)(=O)c3ccc[nH]c3=O)c(N3C[C@@H](C)CC3(C)C)n2)cc1C [Compound 2154, 6-(3,4-dimethylphenyl)-N-[(2-oxo-1H-pyridin-3-yl)sulfonyl]-2-[(4S)-2,2,4-trimethylpyrrolidin-1-yl]pyridine-3-carboxamide] | < 3000 nM
CC(C)COc1cc(F)cc(-c2ccc(C(=O)NS(=O)(=O)c3cccc(N)n3)c(N3CC(F)(F)C3)n2)c1 [Compound 2155, N-[(6-amino-2-pyridyl)sulfonyl]-2-(3,3-difluoroazetidin-1-yl)-6-(3-fluoro-5-isobutoxy-phenyl)pyridine-3-carboxamide] | 3000 to 10000 nM
COc1cccc(-c2ccc(C(=O)NS(=O)(=O)c3cccnc3N)c(N3C[C@@H](C)CC3(C)C)n2)c1O [Compound 2158, N-[(2-amino-3-pyridyl)sulfonyl]-6-(2-hydroxy-3-methoxy-phenyl)-2-[(4S)-2,2,4-trimethylpyrrolidin-1-yl]pyridine-3-carboxamide] | 3000 to 10000 nM

Other lines, results leading:

EC30 | Compound
< 3000 nM | CC1CN(c2ncc(C3=CCN(C(=O)OC(C)(C)C)CC3)cc2C(=O)NS(=O)(=O)c2cccc(N)n2)C(C)(C)C1 (stereo not shown) [Compound 2129, tert-butyl 4-[5-[(6-amino-2-pyridyl)sulfonylcarbamoyl]-6-(2,2,4-trimethylpyrrolidin-1-yl)-3-pyridyl]-3,6-dihydro-2H-pyridine-1-carboxylate]
< 3000 nM | CCOC(=O)c1ccc(OC)c(-c2cnc(N3CC(C)CC3(C)C)c(C(=O)NS(=O)(=O)c3cccc(N)n3)c2)c1 (stereo not shown) [Compound 2134, ethyl 3-[5-[(6-amino-2-pyridyl)sulfonylcarbamoyl]-6-(2,2,4-trimethylpyrrolidin-1-yl)-3-pyridyl]-4-methoxy-benzoate]
3000 to 10000 nM | COCCCNc1cccc(S(=O)(=O)NC(=O)c2cccnc2N2CC(C)CC2(C)C)n1 (stereo not shown) [Compound 2135, N—[[6-(3-methoxypropylamino)-2-pyridyl]sulfonyl]-2-(2,2,4-trimethylpyrrolidin-1-yl)pyridine-3-carboxamide]
< 3000 nM | CC1CN(c2ncccc2C(=O)NS(=O)(=O)c2cccc(Nc3cccc4ccccc34)n2)C(C)(C)C1 (stereo not shown) [Compound 2136, N—[[6-(1-naphthylamino)-2-pyridyl]sulfonyl]-2-(2,2,4-trimethylpyrrolidin-1-yl)pyridine-3-carboxamide]
< 3000 nM | CC1CN(c2ncccc2C(=O)NS(=O)(=O)c2cccc(OCC(C)(C)n3cccc3)n2)C(C)(C)C1 (stereo not shown) [Compound 2137, N—[[6-(2-methyl-2-pyrrol-1-yl-propoxy)-2-pyridyl]sulfonyl]-2-(2,2,4-trimethylpyrrolidin-1-yl)pyridine-3-carboxamide]
3000 to 10000 nM | COC(=O)c1ccc(Nc2cccc(S(=O)(=O)NC(=O)c3cccnc3N3CC(C)CC3(C)C)n2)nc1 (stereo not shown) [Compound 2140, methyl 6-[[6-[[2-(2,2,4-trimethylpyrrolidin-1-yl)pyridine-3-carbonyl]sulfamoyl]-2-pyridyl]amino]pyridine-3-carboxylate]
< 3000 nM | CC1CN(c2ncccc2C(=O)NS(=O)(=O)c2cccc(Nc3cccc(C(C)(C)C)c3)n2)C(C)(C)C1 (stereo not shown) [Compound 2142, N—[[6-(3-tert-butylanilino)-2-pyridyl]sulfonyl]-2-(2,2,4-trimethylpyrrolidin-1-yl)pyridine-3-carboxamide]
< 3000 nM | CC1CN(c2ncccc2C(=O)NS(=O)(=O)c2cccc(Nc3cccc(OC(F)(F)F)c3)n2)C(C)(C)C1 (stereo not shown) [Compound 2143, N—[[6-[3-(trifluoromethoxy)anilino]-2-pyridyl]sulfonyl]-2-(2,2,4-trimethylpyrrolidin-1-yl)pyridine-3-carboxamide]
< 3000 nM | CC1CN(c2ncccc2C(=O)NS(=O)(=O)c2cccc(NCCc3cccs3)n2)C(C)(C)C1 (stereo not shown) [Compound 2146, N—[[6-[2-(2-thienyl)ethylamino]-2-pyridyl]sulfonyl]-2-(2,2,4-trimethylpyrrolidin-1-yl)pyridine-3-carboxamide]
< 3000 nM | CC1CN(c2ncccc2C(=O)NS(=O)(=O)c2cccc(OC3C=CCCC3)n2)C(C)(C)C1 (stereo not shown) [Compound 2147, N-[(6-cyclohex-2-en-1-yloxy-2-pyridyl)sulfonyl]-2-(2,2,4-trimethylpyrrolidin-1-yl)pyridine-3-carboxamide]
3000 to 10000 nM | Cc1ccc(-c2ccc(C(=O)NS(=O)(=O)c3ccc[nH]c3=O)c(N3C[C@@H](C)CC3(C)C)n2)c(O)c1 [Compound 2148, 6-(2-hydroxy-4-methyl-phenyl)-N-[(2-oxo-1H-pyridin-3-yl)sulfonyl]-2-[(4S)-2,2,4-trimethylpyrrolidin-1-yl]pyridine-3-carboxamide]
< 3000 nM | CCOc1ccc(F)c(-c2ccc(C(=O)NS(=O)(=O)c3cccnc3N)c(N3C[C@@H](C)CC3(C)C)n2)c1 [Compound 2149, N-[(2-amino-3-pyridyl)sulfonyl]-6-(5-ethoxy-2-fluoro-phenyl)-2-[(4S)-2,2,4-trimethylpyrrolidin-1-yl]pyridine-3-carboxamide]
< 3000 nM | CC(C)Cc1ccc(C(=O)NS(=O)(=O)c2cccnc2N)c(N2C[C@@H](C)CC2(C)C)n1 [Compound 2150, N-[(2-amino-3-pyridyl)sulfonyl]-6-isobutyl-2-[(4S)-2,2,4-trimethylpyrrolidin-1-yl]pyridine-3-carboxamide]
< 3000 nM | CC(C)Oc1cccc(-c2ccc(C(=O)NS(=O)(=O)N3CC[C@H](N)C3)c(N3C[C@@H](C)CC3(C)C)n2)c1 [Compound 2156, N-[(3S)-3-aminopyrrolidin-1-yl]sulfonyl-6-(3-isopropoxyphenyl)-2-[(4S)-2,2,4-trimethylpyrrolidin-1-yl]pyridine-3-carboxamide]
> 10000 nM | CC1CN(c2ncc(-c3cccc4[nH]ncc34)cc2C(=O)NS(=O)(=O)c2cccc(N)n2)C(C)(C)C1 (stereo not shown) [Compound 2157, N-[(6-amino-2-pyridyl)sulfonyl]-5-(1H-indazol-4-yl)-2-(2,2,4-trimethylpyrrolidin-1-yl)pyridine-3-carboxamide]
